Patent publication US20080145313A1, “Compositions and Methods for the Treatment and Prevention of Neoplastic Disorders” (Genesis Research & Development Corporation Limited, priority 2006, published 2008)

Test system: target transcript mRNA in A549 cells
Test: Level of mRNA of target transcript in A549 cells by quantitative RT-PCR (Tables 12 and 13)
Format: cell-based, human
Conditions: 24 h post-transfection; for mRNA knockdown of energy and metabolism gene target transcript, 0.1 nM: 0.1 nM siRNA; for mRNA knockdown of energy and metabolism gene target transcript, 1 nM: 1 nM siRNA
Protocol: A549 cells were transfected as described before with 0.1, 1.0 and 10 nM siRNA as listed in Tables 10 and 11 and the relative mRNA levels quantified 24 h post-transfection. RNA was purified from cells using Trizol® extraction as per the manufacturer's protocol (Invitrogen). cDNA was prepared by digesting approximately 200 ng purified RNA with DNAse I (Invitrogen) for 15 minutes at room temperature, followed by 15 minutes at 65° C. in the presence of 25 mM EDTA. 30 ng random primers were added and incubated for 10 minutes at 65° C., 1 minute on ice; Superscript® III polymerase (Invitrogen) was added in presence of 5 nM DTT (Invitrogen) and 1 mM deoxyribonucleotides (Invitrogen), and the reaction incubated at 25° C. for 5 minutes, followed by an hour at 50° C. cDNA was diluted 1:3 in 10 mM Tris pH 7.0, and quantitative RT-PCR carried out on an ABI Prism 7900HT (Applied Biosciences, Inc., Foster City, Calif.) using FastStart TaqMan SYBRGreen (Roche, Basel, Switzerland) or Platinum SYBR Green (Invitrogen) and 360 nM of the primers specific for gene targets and housekeeping genes HPRT and Lamin. Reduction in target mRNA levels following siRNA transfection are given in Tables 12 and 13, together with the gene specific primer sequences. Primer sequences used for the housekeeping genes HPRT and Lamin are given in SEQ ID NO: 4885-4888.

| Substance | mRNA knockdown of energy and metabolism gene target transcript, 0.1 nM | mRNA knockdown of energy and metabolism gene target transcript, 1 nM | mRNA knockdown of energy and metabolism gene target transcript, 10 nM (10 nM siRNA) |
| --- | --- | --- | --- |
| 3550 (AGGCAACTACCGCGAGCTGCGCTGGTT; chemistry not given here) [compound 3550] | ++ (70-90% mRNA knockdown) | ++ (70-90% mRNA knockdown) | +++ (>90% mRNA knockdown) |
| 3551 (AAGGCAACTACCGCGAGCTGCGCTGGTT; chemistry not given here) [compound 3551] | ++ (70-90% mRNA knockdown) | − (<50% mRNA knockdown) |  |
| 3552 (GAAGGCAACTACCGCGAGCTGCGCTGGTT; chemistry not given here) [compound 3552] | + (50-70% mRNA knockdown) | ++ (70-90% mRNA knockdown) |  |
| 3553 (TGAAGGCAACTACCGCGAGCTGCGCTGGTT; chemistry not given here) [compound 3553] | ++ (70-90% mRNA knockdown) | ++ (70-90% mRNA knockdown) |  |
| 3554 (CGGATGTTGGGATCATTATTA; chemistry not given here) [compound 3554] | ++ (70-90% mRNA knockdown) | ++ (70-90% mRNA knockdown) |  |
| 3555 (ACGGATGTTGGGATCATTATTA; chemistry not given here) [compound 3555] | ++ (70-90% mRNA knockdown) | ++ (70-90% mRNA knockdown) |  |
| 3556 (TACGGATGTTGGGATCATTATTA; chemistry not given here) [compound 3556] | ++ (70-90% mRNA knockdown) | ++ (70-90% mRNA knockdown) |  |
| 3557 (CTACGGATGTTGGGATCATTATTA; chemistry not given here) [compound 3557] | ++ (70-90% mRNA knockdown) | ++ (70-90% mRNA knockdown) |  |
| 3558 (GCTACGGATGTTGGGATCATTATTA; chemistry not given here) [compound 3558] | − (<50% mRNA knockdown) | ++ (70-90% mRNA knockdown) |  |
| 3559 (GGCTACGGATGTTGGGATCATTATTA; chemistry not given here) [compound 3559] | ++ (70-90% mRNA knockdown) | ++ (70-90% mRNA knockdown) |  |
| 3560 (CGGCTACGGATGTTGGGATCATTATTA; chemistry not given here) [compound 3560] | ++ (70-90% mRNA knockdown) | ++ (70-90% mRNA knockdown) |  |
| 3561 (GCGGCTACGGATGTTGGGATCATTATTA; chemistry not given here) [compound 3561] | + (50-70% mRNA knockdown) | ++ (70-90% mRNA knockdown) |  |
| 3562 (TGCGGCTACGGATGTTGGGATCATTATTA; chemistry not given here) [compound 3562] | ++ (70-90% mRNA knockdown) | +++ (>90% mRNA knockdown) |  |
| 3563 (ATGCGGCTACGGATGTTGGGATCATTATTA; chemistry not given here) [compound 3563] | ++ (70-90% mRNA knockdown) | +++ (>90% mRNA knockdown) |  |
| 3564 (GCAAGAACGGTGGGATTTACT; chemistry not given here) [compound 3564] | ++ (70-90% mRNA knockdown) | +++ (>90% mRNA knockdown) |  |
